The source of these data is patent US11820766B2, “Monoacylglycerol lipase modulators” (Janssen Pharmaceutica NV, priority 2018, dated 2023).

pIC50: −log10 of the molar value. Where a name gives a salt, the structure may show the parent alone.

The first assay concerns the target T1, human MGL from HeLa cells (Homo sapiens, UniProt Q99685).
T1 construct: combining endogenously expressed MGL from HeLa cells with test compounds; endogenous in cells; host or cells: HeLa cells / cell homogenates
T1 sequence (Q99685 1-303): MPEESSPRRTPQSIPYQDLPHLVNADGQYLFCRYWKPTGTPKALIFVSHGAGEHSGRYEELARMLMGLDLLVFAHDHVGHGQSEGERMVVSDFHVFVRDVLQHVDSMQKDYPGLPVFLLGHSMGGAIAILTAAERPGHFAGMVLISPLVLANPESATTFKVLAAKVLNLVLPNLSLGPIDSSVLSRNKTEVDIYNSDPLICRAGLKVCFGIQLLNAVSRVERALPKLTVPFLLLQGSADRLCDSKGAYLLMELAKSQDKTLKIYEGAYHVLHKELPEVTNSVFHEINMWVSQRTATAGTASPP
In words: In vitro MGL activity assay: [glycerol-1,3-3H]-oleyl glycerol cleavage by MGL from HeLa cells. The format is biochemical. Conditions: 300 nM [Glycerol-1,3-3H]-oleyl glycerol, one hour. The text has this: MGL is the predominant hydrolase in HeLa cells/cell homogenates.
Regarding `C[C@H]1c2nn(C)c(-c3cc(F)c(F)c(F)c3)c2CCN1C(=O)c1nccc2cn[nH]c12` [Example 432, [(7S)-2,7-Dimethyl-3-(3,4,5-trifluorophenyl)-5,7-dihydro-4H-pyrazolo[3,4-c]pyridin-6-yl]-(1H-pyrazolo[3,4-c]pyridin-7-yl)methanone], the negative-log IC50 (pIC50) was 6.56.

Molecule `C[C@H]1c2nn(C)c(-c3cc(F)c(F)c(F)c3)c2CCN1C(=O)c1cccc2c1OCCC2` [Example 583, Chroman-8-yl-[(7S)-2,7-dimethyl-3-(3,4,5-trifluorophenyl)-5,7-dihydro-4H-pyrazolo[3,4-c]pyridin-6-yl]methanone] gave a pIC50 of 8.85. Same read-out and setting: under `C[C@H]1c2nn(C)c(-c3cc(F)c(F)c(F)c3)c2CCN1C(=O)c1ccnc2c1CCCO2` [Example 564, 3,4-Dihydro-2H-pyrano[2,3-b]pyridin-5-yl-[(7S)-2,7-dimethyl-3-(3,4,5-trifluorophenyl)-5,7-dihydro-4H-pyrazolo[3,4-c]pyridin-6-yl]methanone] stands 7.23; under `C[C@H]1c2nn(C)c(-c3cc(F)c(F)c(F)c3)c2CCN1C(=O)c1cnn2c1OCCC2` [Example 554, 6,7-Dihydro-5H-pyrazolo[5,1-b][1,3]oxazin-3-yl-[(7S)-2,7-dimethyl-3-(3,4,5-trifluorophenyl)-5,7-dihydro-4H-pyrazolo[3,4-c]pyridin-6-yl]methanone], 7.24; under `C[C@H]1c2nn(C)c(-c3cc(F)c(F)c(F)c3)c2CCN1C(=O)c1ccc2c(c1)OCC(=O)N2C` [Example 590, 7-[(7S)-2,7-Dimethyl-3-(3,4,5-trifluorophenyl)-5,7-dihydro-4H-pyrazolo[3,4-c]pyridine-6-carbonyl]-4-methyl-1,4-benzoxazin-3-one.TFA salt], 6.76.

The molecule `Cc1cc2nc(C)c(C(=O)N3CCc4c(nn(C)c4-c4cc(F)c(F)c(F)c4)[C@@H]3C)n2cc1F` [Example 409, [(7S)-2,7-Dimethyl-3-(3,4,5-trifluorophenyl)-5,7-dihydro-4H-pyrazolo[3,4-c]pyridin-6-yl]-(6-fluoro-2,7-dimethyl-imidazo[1,2-a]pyridin-3-yl)methanone] gave a pIC50 of 7.12. This pIC50 lies 0.36 log units higher than the previous one. Same read-out and setting: the result for `COc1ccccc1-c1c2c(nn1C)[C@H](C)N(C(=O)c1ccc3ncccc3c1)CC2` [Example 496, [(7S)-3-(2-Methoxyphenyl)-2,7-dimethyl-5,7-dihydro-4H-pyrazolo[3,4-c]pyridin-6-yl]-(6-quinolyl)methanone] reads 7.26. Consider `C[C@H]1c2nn(C)c(-c3cc(F)c(F)c(F)c3)c2CCN1C(=O)c1ccc2cncnc2c1` [Example 480, [(7S)-2,7-Dimethyl-3-(3,4,5-trifluorophenyl)-5,7-dihydro-4H-pyrazolo[3,4-c]pyridin-6-yl]-quinazolin-7-yl-methanone], for which the pIC50 is 6.68. Against the preceding molecule, the pIC50 is 0.58 log units lower.

Molecule `COc1cc(F)cc(-c2c3c(nn2C)[C@H](C)N(C(=O)c2nccc(OC)c2Cl)CC3)c1` [Example 614, (3-Chloro-4-methoxy-2-pyridyl)-[(7S)-3-(3-fluoro-5-methoxy-phenyl)-2,7-dimethyl-5,7-dihydro-4H-pyrazolo[3,4-c]pyridin-6-yl]methanone] gave a pIC50 of 7.44. The same measure, in the same setting: under `C[C@H]1c2nn(C)c(-c3cc(F)c(F)c(F)c3)c2CCN1C(=O)c1cnc2c(c1)OCCN2` [Example 571, 3,4-Dihydro-2H-pyrido[3,2-b][1,4]oxazin-7-yl-[(7S)-2,7-dimethyl-3-(3,4,5-trifluorophenyl)-5,7-dihydro-4H-pyrazolo[3,4-c]pyridin-6-yl]methanone] stands 7.90. `C[C@H]1c2nn(C)c(-c3cc(F)c(F)c(F)c3)c2CCN1C(=O)c1ncnc2c1cnn2C` [Example 471, [(7S)-2,7-Dimethyl-3-(3,4,5-trifluorophenyl)-5,7-dihydro-4H-pyrazolo[3,4-c]pyridin-6-yl]-(1-methylpyrazolo[3,4-d]pyrimidin-4-yl)methanone] gave a pIC50 of 7.49. Still for that read-out and setting: the result for `C[C@H]1c2nn(C)c(-c3ccc4ccoc4c3)c2CCN1C(=O)c1ccc2ncccc2c1` [Example 532, [(7S)-3-(Benzofuran-6-yl)-2,7-dimethyl-5,7-dihydro-4H-pyrazolo[3,4-c]pyridin-6-yl]-(6-quinolyl)methanone] reads 7.19; that for `Cc1cc2nccnc2cc1C(=O)N1CCc2c(nn(C)c2-c2cc(F)c(F)c(F)c2)[C@@H]1C` [Example 473, [(7S)-2,7-Dimethyl-3-(3,4,5-trifluorophenyl)-5,7-dihydro-4H-pyrazolo[3,4-c]pyridin-6-yl]-(7-methylquinoxalin-6-yl) methanone], 7.51. Consider `Cc1nc2c(C)ncc(C)n2c1C(=O)N1CCc2c(nn(C)c2-c2cc(F)c(F)c(F)c2)[C@@H]1C` [Example 459, [(7S)-2,7-Dimethyl-3-(3,4,5-trifluorophenyl)-5,7-dihydro-4H-pyrazolo[3,4-c]pyridin-6-yl]-(2,5,8-trimethylimidazo[1,2-a]pyrazin-3-yl)methanone], for which the negative-log IC50 (pIC50) is 6.51. The same measure, in the same setting: under `C[C@H]1c2nn(C)c(-c3cc(F)c(F)c(F)c3)c2CCN1C(=O)c1cccc2c1OC1(CC1)CN2` [Example 604, [(7S)-2,7-Dimethyl-3-(3,4,5-trifluorophenyl)-5,7-dihydro-4H-pyrazolo[3,4-c]pyridin-6-yl]-spiro[3,4-dihydro-1,4-benzoxazine-2,1′-cyclopropane]-8-yl-methanone] stands 6.99; under `C[C@H]1c2nn(C)c(-c3cc(F)c(F)c(F)c3)c2CCN1C(=O)c1nccc2ncncc12` [Example 484, [(7S)-2,7-Dimethyl-3-(3,4,5-trifluorophenyl)-5,7-dihydro-4H-pyrazolo[3,4-c]pyridin-6-yl]-pyrido[4,3-d]pyrimidin-5-yl-methanone], 7.21.

The assay is the same for the next values; noted with them: 300 nM [Glycerol-1,3-3H]-oleyl glycerol, one hour incubation.
Take `C[C@H]1c2nn(C)c(-c3cc(F)c(F)c(F)c3)c2CCN1C(=O)c1cccc(F)c1-n1nccn1` [Example 195, (S)-(2,7-Dimethyl-3-(3,4,5-trifluorophenyl)-2,4,5,7-tetrahydro-6H-pyrazolo[3,4-c]pyridin-6-yl)(3-fluoro-2-(2H-1,2,3-triazol-2-yl)phenyl)methanone]: the negative-log IC50 (pIC50) was 6.51.

Molecule `C[C@H]1c2nn(C)c(-c3cc(F)c(F)c(F)c3)c2CCN1C(=O)c1cccc(-n2cncn2)c1` [Example 194, (S)-(3-(1H-1,2,4-Triazol-1-yl)phenyl)(2,7-dimethyl-3-(3,4,5-trifluorophenyl)-2,4,5,7-tetrahydro-6H-pyrazolo[3,4-c]pyridin-6-yl)methanone] gave a negative logarithm of the IC50 (pIC50) of 7.83. This pIC50 is 1.32 log units higher than that of the molecule before. Still for that read-out and setting: the result for `COc1cc(F)cc(-c2c3c(nn2C)[C@H](C)N(C(=O)c2cc4nccnc4cc2F)CC3)c1` [Example 187, (S)-(3-(3-Fluoro-5-methoxyphenyl)-2,7-dimethyl-2,4,5,7-tetrahydro-6H-pyrazolo[3,4-c]pyridin-6-yl)(7-fluoroquinoxalin-6-yl)methanone] reads 7.38; that for `CC1c2nn(C)c(-c3cc(F)cc(Cl)c3)c2CCN1C(=O)c1ccc2nccnc2c1` (stereo not shown) [Example 180, (3-(3-Chloro-5-fluorophenyl)-2,7-dimethyl-2,4,5,7-tetrahydro-6H-pyrazolo[3,4-c]pyridin-6-yl)(quinoxalin-6-yl)methanone], 7.50. On the same count and under the same terms, the result for `C[C@H]1c2nn(C)c(-c3cc(F)c(F)c(F)c3)c2CCN1C(=O)c1cnn(C)c1C(F)F` [Example 330, [5-(Difluoromethyl)-1-methyl-pyrazol-4-yl]-[(7S)-2,7-dimethyl-3-(3,4,5-trifluorophenyl)-5,7-dihydro-4H-pyrazolo[3,4-c]pyridin-6-yl]methanone] reads 6.99; that for `CC(C)c1c(C(=O)N2CCc3c(nn(C)c3-c3cc(F)c(F)c(F)c3)[C@@H]2C)cnn1C` [Example 328, [(7S)-2,7-Dimethyl-3-(3,4,5-trifluorophenyl)-5,7-dihydro-4H-pyrazolo[3,4-c]pyridin-6-yl]-(5-isopropyl-1-methyl-pyrazol-4-yl)methanone], 5.96. On the same count and under the same terms, the result for `Cn1nc2c(c1-c1cccc(OC(F)F)c1)CCN(C(=O)c1ccc3ncccc3c1)C2` [Example 98, (3-(3-(Difluoromethoxy)phenyl)-2-methyl-2,4,5,7-tetrahydro-6H-pyrazolo[3,4-c]pyridin-6-yl)(quinolin-6-yl)methanone] reads 6.01; that for `Cn1nc2c(c1-c1ccccc1)CCN(C(=O)c1cn(C)c3ccccc13)C2` [Example 52, (1-Methyl-1H-indol-3-yl)(2-methyl-3-phenyl-2,4,5,7-tetrahydro-6H-pyrazolo[3,4-c]pyridin-6-yl)methanone], 6.86. Molecule `Cn1nc2c(c1-c1ccccc1)CCN(C(=O)c1ccnc3c1ccn3C)C2` [Example 84, (1-Methyl-1H-pyrrolo[2,3-b]pyridin-4-yl)(2-methyl-3-phenyl-2,4,5,7-tetrahydro-6H-pyrazolo[3,4-c]pyridin-6-yl)methanone] had a pIC50 of 7.32.

With `Cn1nc2c(c1-c1ccccc1)CCN(C(=O)c1cccc3c1OC(F)(F)O3)C2` [Example 30, (2,2-Difluorobenzo[d][1,3]dioxol-4-yl)(2-methyl-3-phenyl-2,4,5,7-tetrahydro-6H-pyrazolo[3,4-c]pyridin-6-yl)methanone], the pIC50 was 5.98. This pIC50 is 1.34 log units lower than that of the molecule before. Turning to `Cc1cnc2cc(C(=O)N3CCc4c(nn(C)c4-c4cc(F)c(F)c(F)c4)[C@@H]3C)ccc2n1` [Example 243, (S)-(2,7-Dimethyl-3-(3,4,5-trifluorophenyl)-2,4,5,7-tetrahydro-6H-pyrazolo[3,4-c]pyridin-6-yl)(2-methylquinoxalin-6-yl)methanone], the pIC50 is 7.60. In turn, `Cc1ccc(-c2c3c(nn2C)CN(C(=O)c2noc4ccccc24)CC3)s1` [Example 102, Benzo[d]isoxazol-3-yl(2-methyl-3-(5-methylthiophen-2-yl)-2,4,5,7-tetrahydro-6H-pyrazolo[3,4-c]pyridin-6-yl)methanone] had a pIC50 of 6.80.
